This note sets out measurements from PMC8148468, “Shikimic acid protects skin cells from UV-induced senescence through activation of the NAD+-dependent deacetylase SIRT1” (Aging (Albany NY), 2021).

One assay concerns chaperone BiP. Kind of assay: BiP protein levels (Western blot). The assay is classed as cell-based, human. Particulars: UVB-irradiated cells, SA -/+ EX-527 1 μM. As to the method:
Figure 5 (A) Western-blot of BiP proteins levels in UVB or non UVB irradiated cells treated with SA at the indicated concentrations in presence or absence of EX-527 1 μM. (B) Quantification of n=3 experiments as (A). The levels of BiP are normalized by the loading control (histone H3) and represented related to the conditions in UVB irradiated cells in absence of SA and EX-527. Student T-test, *p<0.05. (C) Percentage of SA-β-Gal in assays performed as in Figure 3C. (D) Levels of spliced and unspliced XBP1 mRNA monitored by qPCR analysis in cells treated in the indicated conditions in presence or absence of SA and/or EX-527. The levels were normalized by internal controls and represented in each case related to the conditions in UVB irradiated cells in absence of SA and EX-527. Student T-test, *p<0.05, **p<0.01, ***p<0.001. (E) LC3-II protein levels in experiments like in (A). The levels of LC3-II are normalized by the loading control (tubulin) and represented related to the conditions in UVB irradiated cells in absence of SA and EX-527. Student T-test, *p<0.05. (F) Proposed Model for the effect of SA on senescence through SIRT1. Other possible unexplored connections between SA and senescence are indicated by blue broken lines.
Protein levels were analyzed as previously described. Cells were directly lysed in 1x Laemmli Buffer (Bio-Rad, USA), incubated at 95° C and centrifuged. […]
Background: In western blotting, separated proteins are transferred to a membrane and probed.

For the next assay, the system named is p21. In words: p21 mRNA levels (qPCR). In kind it is cell-based, human. Particulars: UVB-irradiated HDF, SA treatment. As to the method: RNA was extracted from cell pellets using the Total RNA Purification Kit (Norgen, Canada), according to the manufacturer’s protocol. […] The primers and their respective sequences are listed in Supplementary Table 1. qPCR protocol included one step at 95° C for 30 s, 40 cycles at 95° C for 10s, and 60° C for 1min. The results were analyzed with Bio-Rad CFX Manager software. BACT was used as a housekeeping gene to normalize gene expression. page 6: Supplementary Figure 6. Quantification (n=3) of the percentage of cells in each cell cycle phase and poliploydies in (A) non-irradiated cells treated with Shikimic acid at the indicated doses and (B) UVB-irradiated cells treated with Shikimic acid at the indicated doses, following the senescence induction method described in Figure 2A. (C) Relative p21 mRNA levels (n=3) in UVB-irradiated cells treated with Shikimic acid at the indicated doses, following the senescence induction method described in Figure 2A. (D) Second (PC-2) and third (PC-3) principal components in the fingerprint region (1800–950 cm−1) from the samples mentioned in Figure 4G. Student T-test, *p<0.05, **p<0.01, ***p<0.001. www.aging-us.com 6 AGING (1 picture or pasted object on this page, not shown here)
On the technique in general: In qPCR the cycle at which signal appears reflects the starting amount.

On to `O=C(O)C1=C[C@@H](O)[C@@H](O)[C@H](O)C1` [Shikimic acid], for which the BiP protein levels entry in the assay with chaperone BiP is reported as “induced upregulation of chaperone BiP”. Also, the “p21 mRNA levels” value with p21 is “did not observe any clear effect”.
